pIC50: −log10 of the molar value.
Legend:
[1] = target: human ENPP2 (Homo sapiens, UniProt Q13822); assay: In vitro bis-pNPP assay (ATX inhibitory activity); format: biochemical; conditions: for pIC50: in vitro bis-pNPP assay, human ENPP2
Experimental: We confirmed the ATX inhibitory activity of each compound using bis-pNPP assay. First, 50 μL of 60 mM Tris-HCl (pH 9.0) solution was poured into a 96-well plate and 10 μL of the test compound solution (10% dimethyl sulfoxide) was added. Subsequently, 20 μL of a 3.75 nM human ENPP2 solution (buffer: 50 mM Tris-HCl (pH 8.5), 5 mM CaCl2, 2.5 mM MgCl2, 0.002% Brij 35) and 20 μL of 25 mM bis-pNPP solution (buffer: 50 mM Tris-HCl (pH 9.0)) were added and mixed. Spectrophotometric measurement was carried out at 405 nm at intervals of 10 s while reacting under 37 °C for 10 min.

[2] = target: T1, ATX (Homo sapiens, UniProt Q13822); assay: Ex vivo human plasma assay (LPC to LPA, LC-MS/MS); format: biochemical; conditions: 37 °C, 3 h
T1 construct: from tissue; host or cells: human plasma / serum
Experimental: First, 5 μL of each test compound solution (10 mM, 100% dimethyl sulfoxide) was diluted 100 times with 495 μL of methanol and then 3 μL of a diluted methanol solution (1% dimethyl sulfoxide) was added to a human or rat serum solution. Next, 12 μL of the test compound solution was mixed into 48 μL of 100% serum in order to make 5 concentrations, and each tube was placed in a constant temperature water bath at 37 °C for 15 min. Subsequently, 10 mg/mL 18: 1 LPC solution (50% ethanol) was diluted to 375 μg/mL with serum and 2 μL was dispensed into each tube to make 50 μL. Each tube was reacted in a constant temperature water bath at 37 °C for 3 h. Then, 100 μL of a 0.5 μM 17:0 LPA solution (Chloroform/Methanol/Water = 65/35/8) was added to the reaction tube. Reaction mixture was centrifuged at 14,000 rpm, at 4 °C for 10 min in a centrifuge. Thereafter, 100 μL of 50% methanol solution was first dissolved in a 96-well polypropylene plate (Agilent Technologies 5042-1385, Santa Clara, CA, USA), and then 50 μL of the supernatant was carefully transferred from the centrifuged tube to the plate. Then, it was covered with a well cap (Thermo 276011, Thermo Fisher Scientific Solutions LLC, Seoul, Korea) and analyzed by LC-MS/MS (Agilent 1260).

| SMILES | pIC50 [1] | potency relative to compound 1 in the bis-pNPP assay ([1]; ratio of bis-pNPP IC50 values, compound 2 vs compound 1) | pIC50 [2] |
| --- | --- | --- | --- |
| NS(=O)(=O)Nc1ccc(C(=O)NC2CCN(C(=O)OCc3cc(Cl)cc(Cl)c3)CC2)cc1 [Compound 2, (3,5-dichlorophenyl)methyl 4-[4-(sulfamoylamino)benzamido]piperidine-1-carboxylate] | 7.35 | five-fold more potent | – |
| NS(=O)(=O)Nc1ccc(NC(=O)c2ccc3c(c2)CN(C(=O)OCc2cc(Cl)cc(Cl)c2)C3)cc1 [Compound 3, (3,5-dichlorophenyl)methyl 5-{[4-(sulfamoylamino)phenyl]carbamoyl}-2,3-dihydro-1H-isoindole-2-carboxylate] | 8.41 | – | 6.08 |
| NS(=O)(=O)Nc1ccc(C(=O)Nc2ccc3c(c2)CN(C(=O)OCc2cc(Cl)cc(Cl)c2)C3)cc1 [Compound 4, (3,5-dichlorophenyl)methyl 5-[4-(sulfamoylamino)benzamido]-2,3-dihydro-1H-isoindole-2-carboxylate] | 7.90 | – | – |
